Here are results for 23 molecules from patent US8987314B2, “Amide, urea or sulfone amide linked benzothiazole inhibitors of endothelial lipase” (Bristol-Myers Squibb Company, priority 2012, dated 2015).

The target in one assay is Endothelial lipase (EL) (Homo sapiens (Human), UniProt Q9Y5X9). Briefly: EL assay: endothelial lipase activity with fluorescent substrate A10070 in DMPG vesicles. In kind it is biochemical. Summed up:
(§1)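 Compounds were preincubated with enzyme for 30 min at 37° C before FRET-substrate vesicles (A10070 in DMPG, 0.11 mole fraction) were added. Reaction rates were obtained from the 300–900 sec slope of fluorescence at 490/530 nm.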

The target of the next assay is hepatic lipase (HL) (Homo sapiens (Human), UniProt P11150). Kind of assay: HL assay: hepatic lipase activity with fluorescent substrate A10070 in DMPG vesicles. It is filed as biochemical. The procedure, abridged:
as §1

Sequence of Endothelial lipase (EL) (Q9Y5X9 21-500): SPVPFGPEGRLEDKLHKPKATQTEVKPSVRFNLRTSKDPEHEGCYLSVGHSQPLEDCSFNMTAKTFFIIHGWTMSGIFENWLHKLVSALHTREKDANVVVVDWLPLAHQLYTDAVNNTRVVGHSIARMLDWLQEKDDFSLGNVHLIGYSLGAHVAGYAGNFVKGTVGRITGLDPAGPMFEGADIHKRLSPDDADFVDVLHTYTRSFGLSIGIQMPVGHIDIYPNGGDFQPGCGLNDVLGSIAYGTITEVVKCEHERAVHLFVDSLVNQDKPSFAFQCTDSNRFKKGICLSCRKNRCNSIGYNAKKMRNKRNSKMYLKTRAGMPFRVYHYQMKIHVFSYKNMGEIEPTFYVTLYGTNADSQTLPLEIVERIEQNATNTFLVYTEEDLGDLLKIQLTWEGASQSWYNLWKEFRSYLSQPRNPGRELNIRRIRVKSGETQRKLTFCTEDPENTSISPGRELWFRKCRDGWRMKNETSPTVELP
Sequence of hepatic lipase (HL) (P11150 23-499, species assumed): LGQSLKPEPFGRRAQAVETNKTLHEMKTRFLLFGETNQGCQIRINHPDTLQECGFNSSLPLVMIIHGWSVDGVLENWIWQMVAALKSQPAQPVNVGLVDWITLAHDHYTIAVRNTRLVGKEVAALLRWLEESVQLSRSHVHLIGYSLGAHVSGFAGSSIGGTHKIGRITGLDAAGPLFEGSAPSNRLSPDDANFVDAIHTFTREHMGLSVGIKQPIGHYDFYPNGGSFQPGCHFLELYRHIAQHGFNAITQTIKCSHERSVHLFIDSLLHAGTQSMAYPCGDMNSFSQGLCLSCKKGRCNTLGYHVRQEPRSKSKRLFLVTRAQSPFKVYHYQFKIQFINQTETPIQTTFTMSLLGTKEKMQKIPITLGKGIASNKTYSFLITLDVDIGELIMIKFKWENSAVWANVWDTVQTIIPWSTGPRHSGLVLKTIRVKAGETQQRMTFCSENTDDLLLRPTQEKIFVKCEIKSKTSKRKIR

Consider `COC[C@H](C)NC(=O)c1ccc(-c2ccc3nc(C(C(=O)NCCS(N)(=O)=O)S(=O)(=O)Cc4ccc(OC(F)(F)F)cc4)sc3c2)cc1` (stereo partly drawn) [Example B250, N-[(2S)-1-methoxypropan-2-yl]-4-(2-{[(2-sulfamoyl-ethyl)carbamoyl][4-(trifluoromethoxy)phen-yl]methanesulfonylmethyl}-1,3-benzothiazol-6-yl)ben-zamide], for which the IC50 against Endothelial lipase (EL) was 0.0053 µM; against hepatic lipase (HL) it was 0.0384 µM.
Taken in the same sequence, the figures for `C[C@H]1CN(C(=O)c2ccc(-c3ccc4nc(C(C(=O)NCCS(N)(=O)=O)S(=O)(=O)CC5CC5)sc4c3)cc2)CCO1` (stereo partly drawn) [Example B251, 2-cyclopropylmethane-sulfonyl-2-(6-{4-[(2S)-2-methylmorpholine-4-carbonyl]phenyl}-1,3-benzothiazol-2-yl)-N-(2-sulfamoylethyl)acetamide] were 0.0026 µM and 0.363 µM.
As for `Cc1nnc(CNC(=O)C(c2nc3ccc(-c4ccc(O)cc4)cc3s2)S(=O)(=O)Cc2ccccc2)o1` (stereo not shown) [Example B254, 2-[6-(4-hydroxyphenyl)-1,3-benzothiazol-2-yl]-N-[(5-methyl-1,3,4-oxadiazol-2-yl)methyl]-2-phenylmethanesulfonyl-acetamide], the IC50 at Endothelial lipase (EL) is 0.294 µM; against hepatic lipase (HL) it was 0.259 µM.
As for `Cc1nnc(CNC(=O)C(c2nc3ccc(-c4cccc(N(C)C)c4)cc3s2)S(=O)(=O)Cc2ccccc2)o1` (stereo not shown) [Example B255, 2-{6-[3-(dimethylamino)phen-yl]-1,3-benzothiazol-2-yl}-N-[(5-methyl-1,3,4-oxadiazol-2-yl)methyl]-2-phenylmethanesulfonyl-acetamide], the figures for the IC50 at Endothelial lipase (EL) and against hepatic lipase (HL) were 0.225 µM and 0.0435 µM, respectively.
Taken in the same sequence, the figures for `CS(=O)(=O)C(C(=O)NCc1cccc(S(N)(=O)=O)c1)c1nc2ccc(-c3ccccc3)cc2s1` (stereo not shown) [Example B256, 2-methanesulfonyl-2-(6-phenyl-1,3-benzothiazol-2-yl)-N-[(3-sulfamoylphen-yl)methyl]acetamide] were 0.19 µM and 0.0147 µM.
For the molecule `Cc1nnc(CNC(=O)C(c2nc3ccc(-c4ccc(C(=O)N5CC(F)(F)C5)cc4)cc3s2)S(C)(=O)=O)o1` (stereo not shown) [Example B257, 2-{6-[4-(3,3-difluoroazetidine-1-carbonyl)phen-yl]-1,3-benzothiazol-2-yl}-2-methanesulfonyl-N-[(5-methyl-1,3,4-oxadiazol-2-yl)methyl]a-cetamide], the IC50 at Endothelial lipase (EL) worked out at 0.032 µM; on hepatic lipase (HL), 0.0533 µM.
The like results for `COCCNC(=O)c1ccc(-c2cc3sc(C(C(=O)NCc4nnc(C)o4)S(=O)(=O)CCOC)nc3cc2F)cc1` (stereo not shown) [Example B258, 4-{5-fluoro-2-[(2-methoxy-ethanesulfonyl)({[(5-methyl-1,3,4-oxadiazol-2-yl)methyl]carbamoyl})meth-yl]-1,3-benzothiazol-6-yl}-N-(2-methoxyeth-yl)benzamide] were, in that order, 0.0572 µM and 0.889 µM.
The like results for `COCCS(=O)(=O)C(C(=O)NCc1nnc(C)o1)c1nc2cc(F)c(-c3ccc(C(=O)N(C)C)c(F)c3)cc2s1` (stereo not shown) [Example B259, 2-fluoro-4-{5-fluoro-2-[(2-methoxyethanesulfon-yl)({[(5-methyl-1,3,4-oxadiazol-2-yl)methyl]car-bamoyl})methyl]-1,3-benzothiazol-6-yl}-N,N-dimethylbenzamide] were, in that order, 0.121 µM and 0.208 µM.
Turning to `COCCS(=O)(=O)C(C(=O)NCc1nnc(C)o1)c1nc2cc(F)c(-c3ccc(C(=O)N4CC(C)(O)C4)cc3)cc2s1` (stereo not shown) [Example B260, 2-{5-fluoro-6-[4-(3-hydroxy-3-methyl-azetidine-1-carbonyl)phen-yl]-1,3-benzothiazol-2-yl}-2-(2-methoxyethane-sulfonyl)-N-[(5-methyl-1,3,4-oxadiazol-2-yl)methyl]acetamide], the IC50 against Endothelial lipase (EL) came to 0.067 µM; against hepatic lipase (HL), 1.34 µM.
The like results for `COCCS(=O)(=O)C(C(=O)NCc1nnc(C)o1)c1nc2cc(F)c(-c3ccc(C(=O)N4CCCC4)c(F)c3)cc2s1` (stereo not shown) [Example B261, 2-{5-fluoro-6-[3-fluoro-4-(pyrrolidine-1-carbonyl)phen-yl]-1,3-benzothiazol-2-yl}-2-(2-methoxy-ethanesulfonyl)-N-[(5-methyl-1,3,4-oxadiazol-2-yl)methyl]acetamide] were, in that order, 0.101 µM and 0.765 µM.
On to `COCCS(=O)(=O)C(C(=O)NCc1nnc(C)o1)c1nc2cc(F)c(-c3ccc(C(=O)N4CCCC4)cc3)cc2s1` (stereo not shown) [Example B262, 2-{5-fluoro-6-[4-(pyrrolidine-1-carbonyl)phen-yl]-1,3-benzothiazol-2-yl}-2-(2-methoxy-ethanesulfonyl)-N-[(5-methyl-1,3,4-oxadiazol-2-yl)methyl]acetamide], for which the IC50 worked out at 0.102 µM against Endothelial lipase (EL) and 0.374 µM against hepatic lipase (HL).
Taken in the same sequence, the figures for `Cc1nnc(CNC(=O)C(c2nc3ccc(-c4ccc(C(=O)N5CC(C)(O)C5)cc4)cc3s2)S(C)(=O)=O)o1` (stereo not shown) [Example B263, 2-{6-[4-(3-hydroxy-3-methylazetidine-1-carbonyl)phenyl]-1,3-benzothiazol-2-yl}-2-methanesulfonyl-N-[(5-methyl-1,3,4-oxadiazol-2-yl)methyl]acetamide] were 0.077 µM and 10 µM.
Take `COCCNC(=O)c1ccc(-c2ccc3nc(C(C(=O)NCc4nnc(C)o4)S(=O)(=O)CCOC)sc3c2)cc1` (stereo not shown) [Example B264, 4-{2-[(2-methoxyethane-sulfonyl)({[(5-methyl-1,3,4-oxadiazol-2-yl)meth-yl]carbamoyl})meth-yl]-1,3-benzothiazol-6-yl}-N-(2-methoxyethyl)ben-zamide]: the results for the IC50 on Endothelial lipase (EL) and on hepatic lipase (HL) were 0.093 µM and 0.184 µM, respectively.
`COCCS(=O)(=O)C(C(=O)NCc1nnc(C)o1)c1nc2ccc(-c3ccc(C(=O)N4CC(C)(O)C4)cc3)cc2s1` (stereo not shown) [Example B265, 2-{6-[4-(3-hydroxy-3-methylazetidine-1-carbonyl)phenyl]-1,3-benzothiazol-2-yl}-2-(2-methoxyethanesulfonyl)-N-[(5-methyl-1,3,4-oxadiazol-2-yl)methyl]a-cetamide]: the IC50 at Endothelial lipase (EL) is 0.059 µM; against hepatic lipase (HL), 0.634 µM.
Taken in the same sequence, the figures for `COCCNC(=O)c1ccc(-c2cc3sc(C(C(=O)NCc4nnc(C)o4)S(C)(=O)=O)nc3cc2F)cc1` (stereo not shown) [Example B266, 4-{5-fluoro-2-[methanesulfonyl({[(5-methyl-1,3,4-oxadiazol-2-yl)methyl]carbamoyl})meth-yl]-1,3-benzothiazol-6-yl}-N-(2-methoxyethyl)ben-zamide] were 0.0391 µM and 0.948 µM.
`COCCNC(=O)c1ccc(-c2ccc3nc(C(C(=O)NCCS(N)(=O)=O)S(=O)(=O)C(C)C)sc3c2)cc1` (stereo not shown) [Example B267, N-(2-methoxyethyl)-4-{2-[(propane-2-sulfonyl)[(2-sul-famoylethyl)carbamoyl]meth-yl]-1,3-benzothiazol-6-yl}benzamide]: the IC50 came out at 0.0445 µM at Endothelial lipase (EL) and 0.289 µM against hepatic lipase (HL).
Take `CC(C)S(=O)(=O)C(C(=O)NCCS(N)(=O)=O)c1nc2cc(C(F)(F)F)c(-c3ccc(C(=O)N4CCOCC4)cc3)cc2s1` (stereo not shown) [Example B268, 2-{6-[4-(morpholine-4-carbonyl)phenyl]-5-(trifluoromethyl)-1,3-benzothiazol-2-yl}-2-(propane-2-sulfonyl)-N-(2-sulfamoylethyl)acetamide]: the IC50 against Endothelial lipase (EL) stood at 0.0092 µM; against hepatic lipase (HL) it was 0.406 µM.
The like results for `COCCNC(=O)c1ccc(-c2cc3sc(C(C(=O)NCCS(N)(=O)=O)S(=O)(=O)C(C)C)nc3cc2C(F)(F)F)cc1` (stereo not shown) [Example B269, N-(2-methoxyethyl)-4-{2-[(propane-2-sulfonyl)[(2-sul-famoylethyl)carbamoyl]meth-yl]-5-(trifluoro-methyl)-1,3-benzothiazol-6-yl}benzamide] were, in that order, 0.01 µM and 0.312 µM.
Consider `COCCS(=O)(=O)NS(=O)(=O)c1cccc(CNC(=O)C(c2nc3cc(-c4ccccc4)ccc3s2)S(=O)(=O)CCOC)c1` (stereo not shown) [Example B270, N-({3-[(2-methoxyethane-sulfonamido)sulfonyl]phen-yl}methyl)-2-(2-methoxyethanesulfonyl)-2-(5-phenyl-1,3-benzothiazol-2-yl)a-cetamide], for which the IC50 at Endothelial lipase (EL) was 0.205 µM; against hepatic lipase (HL), 0.212 µM.
Consider `CC(C)S(=O)(=O)C(C(=O)NCCS(N)(=O)=O)c1nc2ccc(-c3cccc(C(=O)N(C)C)c3)cc2s1` (stereo not shown) [Example B272, N,N-dimethyl-3-{2-[(propane-2-sulfonyl)[(2-sul-famoylethyl)carbamoyl]meth-yl]-1,3-benzothiazol-6-yl}benzamide], for which the IC50 against Endothelial lipase (EL) stood at 0.0353 µM; on hepatic lipase (HL) it was 0.612 µM.
The like results for `Cc1cc2nc(C(C(=O)NCCS(N)(=O)=O)S(=O)(=O)Cc3ccccc3)sc2cc1-c1ccc(C(=O)OC(C)(C)C)cc1` (stereo not shown) [Example B273, tert-butyl 4-(5-methyl-2-{phenylmethanesulfonyl[(2-sulfamoylethyl)car-bamoyl]methyl}-1,3-benzothiazol-6-yl)benzoate] were, in that order, 0.0014 µM and 0.003 µM.
For the molecule `Cc1cc2nc(C(C(=O)NCCS(N)(=O)=O)S(C)(=O)=O)sc2cc1-c1ccc(C(=O)OC(C)(C)C)cc1` (stereo not shown) [Example B274, tert-butyl 4-(2-{methanesulfonyl[(2-sul-famoylethyl)carbamoyl]meth-yl}-5-methyl-1,3-benzothiazol-6-yl)benzoate], the IC50 was determined as 0.0017 µM on Endothelial lipase (EL) and 0.0051 µM on hepatic lipase (HL).
As for `CS(=O)(=O)C(C(=O)NCc1ccccc1S(N)(=O)=O)c1nc2ccc(-c3ccc(N4CCCCC4)cc3)cc2s1` (stereo not shown) [Example B275, 2-methanesulfonyl-2-{6-[4-(piperidin-1-yl)phenyl]-1,3-benzothiazol-2-yl}-N-[(2-sulfamoylphenyl)meth-yl]acetamide], the values for the IC50 against Endothelial lipase (EL) and at hepatic lipase (HL) were 0.173 µM and 0.218 µM, respectively.

One may read the IC50 as the concentration needed to halve the response being measured.
